How the values were obtained:
Assay type in all cases: cell-based
[1] = molecular target: T1, αWT α-βV25′A GlyR (Homo sapiens, UniProt P23415+P48167, A277S/G282P/I253M/I257A/I264V/I268L/L252M/M248V/M255V/M274P/P278A/Q254G/S259T/V323A/Y250F)
T1 construct: The α R218-Q219 and β R242-Q243 are also the joining sites for chimeras constructed between the ECD and TMD; expressed in transfected cells; host or cells: HEK293 (ATCC)
Method: (§1) The human GlyR α1 and β subunit cDNAs were subcloned into the pcDNA3.1zeo+ (Invitrogen) or pGEMHE [44] plasmid vectors for expression in HEK293 cells or Xenopus oocytes, respectively. Site-directed mutagenesis and chimera construction were performed using the QuickChange (Stratagene, La Jolla, CA, USA) mutagenesis and multiple-template-based sequential PCR protocols, respectively.
(§2) The effects of the hyperekplexia-mimicking mutations, K24′A, V25′A and Y27′A, were examined on GlyRs expressed in HEK293 cells (ATCC). Details of the HEK293 cell culture, GlyR expression and electrophysiological recording of the HEK293 cells are described elsewhere. Briefly, HEK293 cells were maintained in DMEM supplemented with 10% fetal bovine serum. Cells were transfected using a calcium phosphate precipitation protocol. When co-transfecting the α1 together with the β or any other chimera subunits, their respective cDNAs were combined in a ratio of 1∶10. In addition, the pEGFP-N1 (Clontech) was co-transfected to facilitate identifying the transfected cells. […] Cells were treated with external Ringer's solution and internal CsCl solution [30]. Cells were voltage-clamped at −40 mV. When the heteromeric GlyRs were expressed, the picrotoxin sensitivity was tested to confirm that the majority of receptors are heteromers, [30].
(§3) Results are expressed as mean±standard error of the mean of three or more independent experiments. […] Statistical significance was determined using the Student's t-test.

[2] = molecular target: T2, αR19′A βWT GlyR (Homo sapiens, UniProt P23415+P48167, R299A)
T2 construct: expressed in transfected cells; host or cells: HEK293 (ATCC)
Method: as §1, §2, §3

[3] = molecular target: T3, αWT βV25′A GlyR (Homo sapiens, UniProt P23415+P48167, V323A)
T3 construct: expressed in transfected cells; host or cells: HEK293 (ATCC)
Method: as §1, §2, §3

[4] = molecular target: T4, αWT βK24′A GlyR (Homo sapiens, UniProt P23415+P48167, K322A)
T4 construct: expressed in transfected cells; host or cells: HEK293 (ATCC)
Method: as §1, §2, §3

[5] = molecular target: T5, αR19′A βA19′R GlyR (Homo sapiens, UniProt P23415+P48167, A317R/R299A)
T5 construct: expressed in transfected cells; host or cells: HEK293 (ATCC)
Method: as §1, §2, §3

[6] = molecular target: T6, αWT α-βK24′A GlyR (Homo sapiens, UniProt P23415+P48167, A277S/G282P/I253M/I257A/I264V/I268L/K322A/L252M/M248V/M255V/M274P/P278A/Q254G/S259T/Y250F)
T6 construct: The α R218-Q219 and β R242-Q243 are also the joining sites for chimeras constructed between the ECD and TMD; expressed in transfected cells; host or cells: HEK293 (ATCC)
Method: as §1, §2, §3

[7] = molecular target: T7, αWT αB-βV25′A GlyR (Homo sapiens, UniProt P23415+P48167, A165S/A240V/A277S/A80Q/E245R/G282P/H243T/I181K/I238V/I253M/I257A/I264V/I268L/K171T/L252M/M168L/M248V/M255V/M274P/N172L/P278A/Q254G/R241I/S259T/T179R/V177T/V323A/Y250F)
T7 construct: expressed in transfected cells; host or cells: HEK293 (ATCC)
Method: as §1, §2, §3

[8] = molecular target: T8, αV25′A βWT GlyR (Homo sapiens, UniProt P23415+P48167, V305A)
T8 construct: expressed in transfected cells; host or cells: HEK293 (ATCC)
T8 sequence (P23415 29-449 isoform P23415-2 V305A limits assumed): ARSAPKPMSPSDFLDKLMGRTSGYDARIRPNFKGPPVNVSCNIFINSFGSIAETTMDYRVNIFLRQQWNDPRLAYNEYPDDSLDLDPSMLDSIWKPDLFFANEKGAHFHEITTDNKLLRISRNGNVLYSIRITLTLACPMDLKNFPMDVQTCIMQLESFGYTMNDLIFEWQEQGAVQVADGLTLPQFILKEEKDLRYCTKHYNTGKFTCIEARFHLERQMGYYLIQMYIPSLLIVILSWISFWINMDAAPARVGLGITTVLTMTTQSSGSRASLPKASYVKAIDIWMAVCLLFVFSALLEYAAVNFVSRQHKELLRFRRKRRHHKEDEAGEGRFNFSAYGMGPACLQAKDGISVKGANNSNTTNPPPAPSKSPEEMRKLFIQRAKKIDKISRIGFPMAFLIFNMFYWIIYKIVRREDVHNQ
T8 sequence (P48167 23-497): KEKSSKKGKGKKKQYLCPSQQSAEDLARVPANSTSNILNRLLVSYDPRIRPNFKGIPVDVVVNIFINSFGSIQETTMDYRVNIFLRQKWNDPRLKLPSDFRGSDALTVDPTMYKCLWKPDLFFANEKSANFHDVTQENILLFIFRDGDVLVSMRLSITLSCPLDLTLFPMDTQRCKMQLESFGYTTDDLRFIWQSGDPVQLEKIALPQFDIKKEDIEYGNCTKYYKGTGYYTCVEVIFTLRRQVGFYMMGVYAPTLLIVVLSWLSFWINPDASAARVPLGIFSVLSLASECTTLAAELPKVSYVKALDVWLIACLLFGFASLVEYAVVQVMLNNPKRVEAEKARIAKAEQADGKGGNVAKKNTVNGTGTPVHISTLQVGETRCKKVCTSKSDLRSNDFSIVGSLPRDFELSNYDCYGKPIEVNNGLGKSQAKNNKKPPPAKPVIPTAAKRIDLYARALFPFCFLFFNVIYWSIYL
Method: as §1, §2, §3

[9] = molecular target: T9, αWT βWT GlyR (Homo sapiens, UniProt P23415+P48167)
T9 construct: expressed in transfected cells; host or cells: HEK293 (ATCC)
Method: as §1, §2, §3

[10] = molecular target: T10, αWT αT-βWT GlyR (Homo sapiens, UniProt P23415+P48167, I259R/K198I/L185M/L189N/Q95A/R196T/R263E/S182A/T188K/T194V/T261H/V256I/V258A)
T10 construct: expressed in transfected cells; host or cells: HEK293 (ATCC)
Method: as §1, §2, §3

[11] = molecular target: T11, αV25′A α-βWT GlyR (Homo sapiens, UniProt P23415+P48167, V305A)
T11 construct: The α R218-Q219 and β R242-Q243 are also the joining sites for chimeras constructed between the ECD and TMD; expressed in transfected cells; host or cells: HEK293 (ATCC)
T11 sequence (P23415 29-449 isoform P23415-2 V305A): as the sequence (P23415 29-449 isoform P23415-2 V305A limits assumed) above
T11 sequence (P23415+P48167 fused with the stated changes): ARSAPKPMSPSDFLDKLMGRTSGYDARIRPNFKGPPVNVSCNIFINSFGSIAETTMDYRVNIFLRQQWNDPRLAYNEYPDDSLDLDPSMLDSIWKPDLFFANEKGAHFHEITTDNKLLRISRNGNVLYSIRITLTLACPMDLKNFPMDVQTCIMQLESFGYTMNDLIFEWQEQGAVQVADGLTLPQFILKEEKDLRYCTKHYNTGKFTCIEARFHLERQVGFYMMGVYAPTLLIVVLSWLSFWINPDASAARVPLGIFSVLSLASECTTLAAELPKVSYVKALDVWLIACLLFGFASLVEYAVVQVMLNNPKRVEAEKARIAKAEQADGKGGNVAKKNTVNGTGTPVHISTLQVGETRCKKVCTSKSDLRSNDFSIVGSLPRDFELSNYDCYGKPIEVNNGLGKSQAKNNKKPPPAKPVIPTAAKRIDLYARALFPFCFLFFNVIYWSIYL
Method: as §1, §2, §3

[12] = molecular target: T12, αV25′A αB-βWT GlyR (Homo sapiens, UniProt P23415+P48167, A80Q/V305A)
T12 construct: expressed in transfected cells; host or cells: HEK293 (ATCC)
T12 sequence (P23415 29-449 isoform P23415-2 V305A): as the sequence (P23415 29-449 isoform P23415-2 V305A limits assumed) above
T12 sequence (P23415+P48167 fused with the stated changes): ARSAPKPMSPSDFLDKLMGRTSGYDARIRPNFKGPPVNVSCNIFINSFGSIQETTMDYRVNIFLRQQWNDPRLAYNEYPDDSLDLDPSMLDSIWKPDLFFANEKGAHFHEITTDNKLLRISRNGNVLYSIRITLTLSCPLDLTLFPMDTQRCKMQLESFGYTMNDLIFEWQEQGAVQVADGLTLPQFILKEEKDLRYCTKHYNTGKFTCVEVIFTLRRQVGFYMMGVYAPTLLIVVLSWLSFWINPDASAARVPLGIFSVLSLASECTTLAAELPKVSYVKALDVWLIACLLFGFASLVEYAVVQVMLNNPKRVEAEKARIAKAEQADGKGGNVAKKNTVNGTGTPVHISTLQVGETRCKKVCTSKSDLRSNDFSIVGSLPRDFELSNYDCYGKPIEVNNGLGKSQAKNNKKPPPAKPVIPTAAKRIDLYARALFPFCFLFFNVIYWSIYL
Method: as §1, §2, §3

[13] = molecular target: T13, αWT αT-βV25′A GlyR (Homo sapiens, UniProt P23415+P48167, I259R/K198I/L185M/L189N/Q95A/R196T/R263E/S182A/T188K/T194V/T261H/V256I/V258A/V323A)
T13 construct: expressed in transfected cells; host or cells: HEK293 (ATCC)
Method: as §1, §2, §3

[14] = molecular target: T14, αK24′A βWT GlyR (Homo sapiens, UniProt P23415+P48167, K304A)
T14 construct: expressed in transfected cells; host or cells: HEK293 (ATCC)
T14 sequence (P23415 29-449 isoform P23415-2 K304A limits assumed): as the sequence (P23415 29-449 isoform P23415-2 V305A limits assumed) above, with K276A, A277V counted along it
T14 sequence (P48167 23-497): as the sequence (P48167 23-497) above
Method: as §1, §2, §3

[15] = molecular target: T15, αV25′A αT-βWT GlyR (Homo sapiens, UniProt P23415+P48167, Q95A/V305A)
T15 construct: expressed in transfected cells; host or cells: HEK293 (ATCC)
T15 sequence (P23415 29-449 isoform P23415-2 V305A): as the sequence (P23415 29-449 isoform P23415-2 V305A limits assumed) above
T15 sequence (P48167 23-497 Q95A/S182A/L185M/T188K/L189N/T194V/R196T/K198I/V256I/V258A/I259R/T261H/R263E): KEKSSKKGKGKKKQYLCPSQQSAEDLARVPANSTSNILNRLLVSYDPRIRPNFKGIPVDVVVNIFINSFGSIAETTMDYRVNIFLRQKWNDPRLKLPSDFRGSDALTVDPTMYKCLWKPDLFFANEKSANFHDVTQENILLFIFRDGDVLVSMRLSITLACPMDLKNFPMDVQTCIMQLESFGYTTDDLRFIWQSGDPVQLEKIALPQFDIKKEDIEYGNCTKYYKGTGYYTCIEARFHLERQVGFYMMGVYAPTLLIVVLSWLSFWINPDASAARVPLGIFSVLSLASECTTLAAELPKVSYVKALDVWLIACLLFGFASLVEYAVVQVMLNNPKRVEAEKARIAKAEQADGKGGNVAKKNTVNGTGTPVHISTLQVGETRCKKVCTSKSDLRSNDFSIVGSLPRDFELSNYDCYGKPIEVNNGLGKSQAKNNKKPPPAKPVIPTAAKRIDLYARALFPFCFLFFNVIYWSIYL
Method: as §1, §2, §3

[16] = molecular target: T16, αWT βY27′A GlyR (Homo sapiens, UniProt P23415+P48167, Y325A)
T16 construct: expressed in transfected cells; host or cells: HEK293 (ATCC)
Method: as §1, §2, §3

[17] = αWT α-βV25′A, HEK293, with glycine at EC50 of α1 homomer
[18] = αR19′A βWT, HEK293, with glycine at EC50 of α1 homomer
[19] = αWT βV25′A, HEK293, with glycine at EC50 of α1 homomer
[20] = αWT βK24′A, HEK293, with glycine at EC50 of α1 homomer
[21] = αR19′A βA19′R, HEK293, with glycine at EC50 of α1 homomer
[22] = αWT α-βK24′A, HEK293, with glycine at EC50 of α1 homomer
[23] = αWT αB-βV25′A, HEK293, with glycine at EC50 of α1 homomer
[24] = αV25′A βWT, HEK293, with glycine at EC50 of α1 homomer
[25] = αWT βWT, HEK293, with glycine at EC50 of α1 homomer
[26] = αWT αT-βWT, HEK293, with glycine at EC50 of α1 homomer
[27] = αV25′A α-βWT, HEK293, with glycine at EC50 of α1 homomer
[28] = αV25′A αB-βWT, HEK293, with glycine at EC50 of α1 homomer
[29] = αWT αT-βV25′A, HEK293, with glycine at EC50 of α1 homomer
[30] = αK24′A βWT, HEK293, with glycine at EC50 of α1 homomer
[31] = αV25′A αT-βWT, HEK293, with glycine at EC50 of α1 homomer
[32] = αWT βY27′A, HEK293, with glycine at EC50 of α1 homomer

picrotoxin [PTX]
10uM PTX inhibition (%) [1, 17]: 3.0±1.3% | 100uM PTX inhibition (%) [1, 17]: 34±4% | 10uM PTX inhibition (%) [2, 18]: 2.8±2.1% | 100uM PTX inhibition (%) [2, 18]: 20±9% | 10uM PTX inhibition (%) [3, 19]: 5.7±2.2% | 100uM PTX inhibition (%) [3, 19]: 36±7% | 10uM PTX inhibition (%) [4, 20]: 6.0±1.2% | 100uM PTX inhibition (%) [4, 20]: 35±3% | 10uM PTX inhibition (%) [5, 21]: 4.2±1.7% | 100uM PTX inhibition (%) [5, 21]: 22±8% | 10uM PTX inhibition (%) [6, 22]: 5.6±1.0% | 100uM PTX inhibition (%) [6, 22]: 35±4% | 10uM PTX inhibition (%) [7, 23]: 8.9±2.4% | 100uM PTX inhibition (%) [7, 23]: 43±3% | 10uM PTX inhibition (%) [8, 24]: 4.7±0.7% | 100uM PTX inhibition (%) [8, 24]: 38±3% | 10uM PTX inhibition (%) [9, 25]: 8.5±1.8% | 100uM PTX inhibition (%) [9, 25]: 33±9% | 10uM PTX inhibition (%) [10, 26]: 3.2±0.6% | 100uM PTX inhibition (%) [10, 26]: 25±6% | 10uM PTX inhibition (%) [11, 27]: 2.9±0.8% | 100uM PTX inhibition (%) [11, 27]: 21±5% | 10uM PTX inhibition (%) [12, 28]: 4.8±0.6% | 100uM PTX inhibition (%) [12, 28]: 27±2% | 10uM PTX inhibition (%) [13, 29]: 8.5±1.8% | 100uM PTX inhibition (%) [13, 29]: 36±3% | 10uM PTX inhibition (%) [14, 30]: 2.2±1.1% | 100uM PTX inhibition (%) [14, 30]: 20±5% | 10uM PTX inhibition (%) [15, 31]: 3.7±1.6% | 100uM PTX inhibition (%) [15, 31]: 25±4% | 10uM PTX inhibition (%) [16, 32]: 6.3±0.3% | 100uM PTX inhibition (%) [16, 32]: 42±2%

NCC(=O)O [glycine]
Imax [1]: 7.6±1.7 nA | nH [1]: 1.3±0.1 | Imax [2]: 3.9±1.3 nA | nH [2]: 2.5±0.3 | Imax [3]: 7.7±0.8 nA | nH [3]: 2.0±0.6 | Imax [4]: 5.4±1.0 nA | nH [4]: 1.5±0.3 | Imax [5]: 5.5±0.9 nA | nH [5]: 2.1±0.2 | Imax [6]: 8.0±1.8 nA | nH [6]: 1.5±0.2 | Imax [7]: 9.8±4.9 nA | nH [7]: 2.2±0.3 | Imax [8]: 7.4±2.8 nA | nH [8]: 1.4±0.2 | Imax [9]: 4.3±1.2 nA | nH [9]: 2.0±0.4 | Imax [10]: 12.0±1.6 nA | nH [10]: 2.0±0.1 | Imax [11]: 8.2±1.4 nA | nH [11]: 0.92±0.04 | Imax [12]: 5.5±0.9 nA | nH [12]: 1.1±0.0 | Imax [13]: 14±3.0 nA | nH [13]: 2.3±0.1 | Imax [14]: 6.3±1.1 nA | nH [14]: 1.8±0.2 | Imax [15]: 6.0±1.7 nA | nH [15]: 1.4±0.2 | Imax [16]: 8.0±1.3 nA | nH [16]: 2.4±0.1

From article PMC3222680 (PLoS ONE, 2011)
